Reference: patent US5446045A, “Antiviral guanine analogs” (priority 1993, dated 1995)
≈ marks a conversion by molar mass, not a printed value.

Key:
[1] = literature ref. 3-7; cited from earlier work
[2] = test system: viruses; settings: literature ref. 3; cited from earlier work
[3] = test system: viruses; settings: literature ref. 3; cited from earlier work; remark: listed apart in the source
[4] = test system: Human cytomegalovirus (HCMV) strain AD169; experiment: HCMV plaque reduction (cytopathic effect) assay, strain AD169 in MRC-5 cells; assay type: cell-based; settings: Human betaherpesvirus 5, AD169/MRC5, read-out: IC50 (median inhibitory concentration)
Description: (§1) Vero and MRC-5 cells were obtained from ATCC. Human foreskin fibroblast (HFF) and Vero cells were routinely grown in minimal essential medium (MEM) with Earle salts [MEM(E)]supplemented with 10% fetal bovine serum (FBS). MRC-5 cells were grown in Basal Medium Eagle (BME) with 10% FBS and 0.035% NaHCO3. Cells were passaged according to conventional procedures.^33 Human cytomegalovirus (HCMV) strains AD169 and Towne were obtained from the ATCC. Herpes simplex virus type i and type 2 (HSV1 and HSV2) are commercially available.
Two different plaque reduction assays were employed to determine the antiviral efficacy of the test compounds in culture. The first assay used MRC-5 cells and the AD169 strain of HCMV. The second assay used HFF cells and the Towne strain of HCMV. In experiments using MRC-5 cells the growth medium was removed from monolayer cultures in 24-well tissue culture plates. One mL of virus (AD169), diluted in test medium (Dulbecco's modified Eagle medium (DMEM), 2% FBS, 0.1% NaHCO3 and 50 ug gentamicin/mL) was used. The 24-well plates were centrifuged at 2200 rpm for 30 minutes at room temperature to allow the virus to adsorb. Medium was then aspirated from each well of the plates. The individual dilutions of each compound (prepared in test medium) were placed in each test well (0.8 mL/well, 4 wells/dilution). All plates were incubated at 37° C. in a moist atmosphere of 5% CO2. When virus plaques had formed in control cells (HCMV infected, untreated) the medium was aspirated from all wells, and the cells were stained by adding 0.3 mL of 0.2% crystal violet in 10% buffered formalin to each well. After 15 minutes, the stain was removed, cells were rinsed in tap water until the water was clear, and the plates were inverted and dried at room temperature. Plaques were counted by use of a dissecting microscope.
(§2) Ganciclovir was used as an anti-HCMV standard in all HCMV assays.
(§3) I. A series of guanine analogs containing an alkyl side chain in place of sugar moiety were evaluated for their ability to inhibit HCMV production in acute infection assays in culture and for cytotoxicity in HFF and MRC-5 cells.
(§4) III. Table 1 lists the median inhibitory concentration (IC50) for all compounds tested against HCMV strains AD169 or Towne. In addition this table lists the median toxic concentrations of these compounds (TC50) as determined by visual observation of uninfected cells treated with various concentrations of drug.
Plaque reduction assays were employed to determine the antiviral efficacy of the test compounds in culture. MRC-5 cells and the AD169 strain of FICMV were used. Growth medium was removed from monolayer cultures in 24-well tissue culture plates. One ml of virus, diluted in test medium (Dulbecco's modified Eagle medium (DMEM), 2% FBS, 0.1% NaHCO3 and 50 ug gentamicin/ml). After infection and subsequent removal of the media, individual dilutions of each compound (prepared in test medium) were placed in each test well (0.8 ml/well, 4 wells/dilution) and plates incubated at 37° C. in a moist atmosphere of 5% CO2. When virus plaques have formed in control cells (HCMV infected, untreated) the medium was aspirated from all wells, and the cells stained by adding 0.3 ml of 0.2% crystal violate in 10% buffered formalin to each well. Plaques were counted by use of a dissecting microscope. Ganciclovir was used as an anti-HCMV standard in all HCMV assays.

[5] = Visual cytotoxicity in stationary uninfected MRC-5 cells; assay type: cell-based; settings: human, AD169/MRC5 system, visual observation of stationary uninfected MRC5 cells, read-out: TC50 (median toxic concentration)
Description: (§5) Stationary uninfected HFF and MRC-5 cells were evaluated for visual cytotoxicity on the scoring basis of 0 (no visual cytotoxicity at 20 fold magnification) to 4 (cell sheet nearly destroyed). Cytotoxicity as measured by inhibition of cell growth was performed in Vero cells using a CellTiter 96™ Aqueous Non-Radioactivity Cell Proliferation Assay (Promega). Cytotoxicity assays were performed using a 4 day incubation of test compound with Vero cells plated at 500 cells/well. Each assay was performed in quadruplicate. The resultant data are averaged, graphed and then used to calculate the TC50 (median toxic concentration) for the compound tested.
as §3, §4

[6] = test system: Herpes simplex virus type 1 (HSV1); experiment: Inhibition of HSV1 in Vero cells (CPE assay); assay type: cell-based; settings: Human alphaherpesvirus 1, CPE scored 40 to 48 h post-infection
Description: as §1
(§6) Vero cells were plated at 4×10^4 cells/well in a 96-well microtitre dish in 0.1 mL of MEM(E) with 10% FBS 24 h before infection with virus. The cells were incubated at 37° C. in a 5% CO2 atmosphere. The medium was then removed and 50 μL of media containing 30 to 50 PFU of virus was allowed to adsorb to the cells for 10 minutes at 37° C. The virus containing medium was then removed and the cells were rinsed 3 times with fresh media. A final 100 μL aliquot of fresh medium, containing the various dilutions of test compounds, was then added to each well and the plates were then incubated at 37° C. Plaques were observed 24 hr post-infection and the degree of cytopathic effect scored 40 to 48 h post-infection. Acyclovir was used as a standard in all ttSV assays.
(§7) I. The same compounds used in Example 31 were also assayed for their ability to inhibit herpes simplex viruses type 1 and type 2 in acute infection assays in culture.
(§8) III. The toxic effect of these compounds on actively dividing Vero cells is reported. For all values listed as >x, x is the highest concentration tested for the respective compound.
(§9) Vero cells were plated in a 96-well microtitre dish in 0.1 ml of MEM(E) with 10% FBS 24 hours before infection with virus. The medium will then be removed and 50 ul of media containing 30 to 50 PFU of virus were allowed to adsorb to the cells for 10 minutes at 37° C. The virus-containing medium will then be removed and the cells rinsed 3 times with fresh media. A final 100 ul aliquot of fresh medium, containing the various dilutions of test compounds, were added to each well and the plates incubated at 37° C. Plaques were observed 24 hours post-infection and the degree of cytopathic effect scored 40 to 48 hours-post infection. Acyclovir was used as a standard in all HSV assays.

[7] = test system: Herpes simplex virus type 2 (HSV2); experiment: Inhibition of HSV2 in Vero cells (CPE assay); assay type: cell-based; settings: Human alphaherpesvirus 2, CPE scored 40 to 48 h post-infection
Description: as §1, §6, §7, §8, §9

[8] = Cytotoxicity (inhibition of cell growth) in actively dividing Vero cells, CellTiter 96 assay; assay type: cell-based; settings: african green monkey, 4 day incubation, read-out: Cytotoxicity (TC50)
Description: as §1, §5
III. […] For all values listed as >x, x is the highest concentration tested for the respective compound.

[9] = test system: Human cytomegalovirus (HCMV) strain Towne; experiment: HCMV plaque reduction (cytopathic effect) assay, strain Towne in HFF cells; assay type: cell-based; settings: Human betaherpesvirus 5, HFF, read-out: IC50 (median inhibitory concentration)
Description: as §1
A similar set of experiments designed to monitor HCMV plaque reduction were performed with monolayer cultures of HFF and the Towne strain of HCMV using procedures similar to those reported by Turk et al.^34 Diploid HFF cells were plated 24 hr before use at approximately 1×10^5 cells/plate. These monolayer cultures were infected with 100 plaque forming units (PFU) of virus. The compounds to be assayed were dissolved in culture medium. Viral adsorption was allowed to proceed for 1 hr at which time virus containing medium was removed and replaced with medium containing the various dilutions of the test compounds. Plaques were counted using crystal violet as described above.
as §2, §3, §4

[10] = Visual cytotoxicity in stationary uninfected HFF cells; assay type: cell-based; settings: human; Towne/HFF system; visual observation of stationary uninfected HFF cells; read-out: TC50 (median toxic concentration)
Description: as §1, §5, §3, §4

[11] = test system: DNA viruses; settings: literature refs. 14-17; cited from earlier work

SMILES | immunomodulatory activity [1] | antiviral activity in the host animal [2] | antiviral activity in vitro [3] | IC50 [4] [µg/mL] | CC50 [5] [µg/mL] | IC50 [6] [µg/mL] | IC50 [7] [µg/mL] | CC50 at 96 h [8] [µg/mL] | IC50 [9] [µg/mL] | CC50 [10] [µg/mL] | activity against several DNA viruses [11]
Nc1nc2c(sc(=O)n2[C@@H]2O[C@H](CO)[C@@H](O)[C@H]2O)c(=O)[nH]1 [7-thia-8-oxoguanosine] | demonstrated immunomodulatory activity | broad spectrum of antiviral activity | virtually inactive |  |  |  |  |  |  |  | 
CCCCCCn1c(=O)sc2c(=O)[nH]c(N)nc21 [Compound R1132-30] |  |  |  | 0.45 (≈ 1.68 µM) | 1.2 (≈ 4.47 µM) | > 1.2 | > 1.2 | > 1 |  |  | 
CCCCCn1c(=O)sc2c(=O)[nH]c(N)nc21 [Compound R1132-36] |  |  |  | 0.2 (≈ 0.786 µM) | 4 (≈ 15.7 µM) | > 5.1 | > 5.1 | > 5 | 17 (≈ 66.8 µM) | 100 (≈ 393 µM) | 
CC(C)=CCn1c(=O)sc2c(=O)[nH]c(N)nc21 [Compound R1132-72, 5-Amino-3-(3-methylbut-2-ene-1-yl)thiazo lo[4,5-d]-pyrimidine-2,7(3H,6H)-dione] |  |  |  | 4 (≈ 15.9 µM) | > 100 | 5.6 (≈ 22.2 µM) | 5.6 (≈ 22.2 µM) | 20 (≈ 79.3 µM) | 1.7 (≈ 6.74 µM) | 100 (≈ 396 µM) | 
CCCCC(CCCC)n1c(=O)sc2c(=O)[nH]c(N)nc21 [Compound R1132-73, 5-Amino-3-(nonan-5-yl)thiazolo[4,5-d]-pyrimidine-2,7(3H, 6H)-dione] |  |  |  | 9.4 (≈ 30.3 µM) | 178 (≈ 573 µM) | > 2.2 | > 2.2 | > 2.5 | 4.7 (≈ 15.1 µM) | 11.1 (≈ 35.8 µM) | 
CCC=CCn1c(=O)sc2c(=O)[nH]c(N)nc21 [Compound R1132-74, 5-Amino-3-(pent-2-ene-1-yl)thiazolo[4,5-d]-pyrimidine-2,7(3H,6H)-dione] |  |  |  | < 1 | > 100 | 0.53 (≈ 2.1 µM) | < 0.27 | > 20 | 0.14 (≈ 0.555 µM) | > 100 | 
C=CCCCn1c(=O)sc2c(=O)[nH]c(N)nc21 [Compound R1132-75, 5-Amino-3-(pent-4-ene-1-yl)thiazolo[4,5-d]-pyrimidine-2,7(3H, 6H)-dione] |  |  |  | 9.4 (≈ 37.3 µM) | 68 (≈ 270 µM) | 16.2 (≈ 64.4 µM) | 8.1 (≈ 32.1 µM) | 45 (≈ 178 µM) | 12 (≈ 47.6 µM) | > 100 | 
CCC(CC)n1c(=O)sc2c(=O)[nH]c(N)nc21 [Compound R1132-76, 5-Amino-3-(pentan-3-yl)thiazolo[4,5-d]-pyrimidine-2,7(3H, 6 H)-dione] |  |  |  | > 100 | 32 (≈ 126 µM) | > 21.7 | 21.7 (≈ 85.3 µM) | 56 (≈ 220 µM) |  |  | 
CCCCCC(CCCCC)n1c(=O)sc2c(=O)[nH]c(N)nc21 [Compound R1132-77, 5-Amino-3-(undecan-6-yl)thiazolo[4,5-d]-pyrimidine-2,7(3H,6H)-dione] |  |  |  | 12 (≈ 35.5 µM) | 52 (≈ 154 µM) |  |  |  |  |  | 
O=c1[nH]c(=O)n([C@@H]2O[C@H](CO)[C@@H](O)[C@@H]2F)cc1I [FIAU, 1-(2-deoxy-2-fiuoro-β-D-arabinofuranosyl)-5-iodouracil] |  |  |  |  |  |  |  |  |  |  | potent agents against several DNA viruses
Cc1cn([C@@H]2O[C@H](CO)[C@@H](O)[C@@H]2F)c(=O)[nH]c1=O [FMAU, 1-(2-deoxy-2-fiuoro-β-D-arabinofuranosyl)thymine] |  |  |  |  |  |  |  |  |  |  | potent agents against several DNA viruses
Nc1nc2c(ncn2COC(CO)CO)c(=O)[nH]1 [Ganciclovir, 9-(1-hydroxymethyl-2-hydroxyethoxymethyl)guanine, reference compound] |  |  |  | 2.1 (≈ 8.23 µM) | > 900 |  |  |  | 2.7 (≈ 10.6 µM) | > 100 | 
Nc1nc2c(ncn2COCCO)c(=O)[nH]1 [acyclovir, 9-(2-hydroxyethoxymethyl)guanine, reference compound] |  |  |  |  |  | 0.2 (≈ 0.888 µM) | 0.2 (≈ 0.888 µM) | > 100 |  |  | 
